{
  "source": "patent EP0678293A2",
  "about": "“Composition containing pyridoxine ester, process for the preparation and use thereof” (F. HOFFMANN-LA ROCHE AG, priority 1994, dated 1995)",
  "key": {"[1]": {"details": "cited from earlier work; for Löslichkeit in Fetten: Kummerow, J.Am Oil Chem. Soc. 33 1956, 116"}, "[2]": {"experiment": "Solubility of pyridoxine tripropionate in vegetable oil / lipophilic phases", "excerpt": "50 Gew% Pyridoxintripropionat werden vorgelegt und in 50 Gew% Pflanzenöl unter starkem Rühren gelöst."}, "[3]": {"details": "direct use in ointments, creams and other skin preparations; no test described; cited from earlier work"}},
  "data": [
    {"molecule": "Cc1ncc(CO)c(CO)c1O.Cl", "note": "[Pyridoxin-hydrochlorid]", "values": [
      {"measurement": "Löslichkeit in unpolaren Flüssigkeiten", "setting": "[1]; in unpolaren Flüssigkeiten, background statement", "result": "praktisch unlöslich"}
    ]},
    {"molecule": "CC(=O)OCc1cnc(C)c(OC(C)=O)c1COC(C)=O", "note": "[Pyridoxintriacetat]", "values": [
      {"measurement": "Löslichkeit in Fetten", "setting": "[1]; Sakuragi", "result": "beinahe unlöslich"}
    ]},
    {"molecule": "CCCCCCCCCCCCCCCC(=O)OCc1cnc(C)c(OC(=O)CCCCCCCCCCCCCCC)c1COC(=O)CCCCCCCCCCCCCCC", "note": "[Pyridoxintripalmitat]", "values": [
      {"measurement": "Löslichkeit in Olivenöl", "setting": "[1]; bei 3 °C in Olivenöl, Sakuragi, Kummerow 1956", "result": "0,1%"}
    ]},
    {"molecule": "CCC(=O)OCc1cnc(C)c(OC(=O)CC)c1COC(=O)CC", "note": "[Pyridoxintripropionat]", "values": [
      {"measurement": "Lösung in Pflanzenöl", "setting": "[2]; 50 Gew% Pyridoxintripropionat in 50 Gew% Pflanzenöl, dissolved with vigorous stirring", "result": "homogene Lösung"},
      {"measurement": "löslich in Pflanzenöl", "setting": "[2]; in Pflanzenöl", "result": "≤ 50", "unit": "Gew.%"},
      {"measurement": "Löslichkeit in Fetten", "setting": "[1]; Sakuragi", "result": "beinahe unlöslich"},
      {"measurement": "Vitamin B₆ Wirksamkeit", "setting": "[3]", "result": "volle"}
    ]},
    {"molecule": "Pyridoxinoctanoat", "values": [
      {"measurement": "Löslichkeit in Pflanzenölen", "setting": "[1]; in Pflanzenölen, Sakuragi, Kummerow 1956", "result": "≤ 1", "unit": "%"}
    ]}
  ]
}
